Source: patent US11680056B2, “MK2 inhibitors and uses thereof” (Xinthera, Inc., priority 2021, dated 2023)
Like-named read-outs stand apart in the source and are kept apart here.

How the values were obtained:
p38a/MK2 = p38a/MK2 (Homo sapiens (Human), UniProt P49137+Q16539); experiment: p38a/MK2 biochemical assay: activation of MK2 by p38, FITC-HSP27 peptide phosphorylation (IMAP FP); conditions: 10-point 1:3 dilution, 60 pM active p38a, 1 nM inactive MK2, 10 μM ATP, 2 h incubation
p38a/PRAK = p38a/PRAK (Homo sapiens (Human), UniProt Q16539); experiment: p38a/PRAK biochemical assay: activation of PRAK by p38, FITC-HSP27 peptide phosphorylation (IMAP FP); conditions: 10-point 1:3 dilution, top dose 300 μM; 60 pM active p38a, 1 nM inactive PRAK, 10 μM ATP, 2 h incubation; read-out: p38a/PRAK Enzyme pIC50 (converted)
Sequence of p38a/PRAK (Q16539 whole entry): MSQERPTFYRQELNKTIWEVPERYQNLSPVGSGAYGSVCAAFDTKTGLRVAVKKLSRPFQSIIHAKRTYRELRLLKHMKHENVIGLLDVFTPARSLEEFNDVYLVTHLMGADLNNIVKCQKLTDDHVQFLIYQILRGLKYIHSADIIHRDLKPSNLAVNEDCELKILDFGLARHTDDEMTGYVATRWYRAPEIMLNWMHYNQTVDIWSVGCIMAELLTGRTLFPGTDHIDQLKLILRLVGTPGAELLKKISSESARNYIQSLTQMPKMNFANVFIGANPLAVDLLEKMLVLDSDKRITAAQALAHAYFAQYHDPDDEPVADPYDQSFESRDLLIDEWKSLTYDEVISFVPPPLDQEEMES
Summary of the method: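 GST-tagged MK2 (F46–H400) and PRAK (M1–Q471), expressed in E. coli, activated by p38 and phosphorylate FITC-HSP27 peptide over 2 h with compound; readout by IMAP fluorescence polarisation (ex 485/em 528 nm). Ten-point 1:3 dilutions, top dose 1 μM for MK2 and 300 μM for PRAK. IC50 after vehicle normalisation; selectivity = IC50(PRAK)/IC50(MK2).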

[1] = top dose 1 μM, read-out: p38a/MK2 (1 μM) Enzyme pIC50 (converted)
[2] = top dose 10 μM, read-out: p38a/MK2 (10 μM) Enzyme pIC50 (converted)

Sequence of p38a/MK2 (P49137 46-400): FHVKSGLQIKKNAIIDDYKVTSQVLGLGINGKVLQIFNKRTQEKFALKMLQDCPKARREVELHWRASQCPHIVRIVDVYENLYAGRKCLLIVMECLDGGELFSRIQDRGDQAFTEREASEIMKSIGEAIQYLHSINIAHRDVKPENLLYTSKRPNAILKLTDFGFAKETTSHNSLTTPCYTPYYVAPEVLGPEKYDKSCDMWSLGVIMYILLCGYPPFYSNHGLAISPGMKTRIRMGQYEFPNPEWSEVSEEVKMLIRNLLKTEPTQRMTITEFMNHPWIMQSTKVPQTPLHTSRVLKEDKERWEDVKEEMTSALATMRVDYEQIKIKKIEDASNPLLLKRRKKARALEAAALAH
Sequence of p38a/MK2 (Q16539 whole entry): as the sequence (Q16539 whole entry) above

| SMILES | IC50 (p38a/MK2; [1]) [µM] | IC50 (p38a/PRAK) [µM] | IC50 (p38a/MK2; [2]) [µM] | p38a/MK2 (10 μM) Enzyme pIC50 (p38a/MK2; top dose 10 μM) |
| --- | --- | --- | --- | --- |
| [2H]C([2H])([2H])C(O)(c1nccc(-c2ncc(C)c(-n3c(C)cc(OCc4ncc(F)cc4F)c(Cl)c3=O)c2F)n1)C([2H])([2H])[2H] (single isomer, unassigned) [Example 66B, rel-3-chloro-4-((3,5-difluoropyridin-2-yl)methoxy)-3′-fluoro-2′-(2-(2-hydroxypropan-2-yl-1,1,1,3,3,3-d6)pyrimidin-4-yl)-5′,6-dimethyl-2H-[1,4′-bipyridin]-2-one] | 0.00631 | 1 |  |  |
| Cc1cnc(-c2ccnc(CC3(O)CC3)n2)cc1-n1c(C)cc(OCc2ncc(F)cc2F)c(Cl)c1=O (single isomer, unassigned) [Example 48B, rel-3-chloro-4-[(3,5-difluoropyridin-2-yl)methoxy]-2′-{2-[(1-hydroxycyclopropyl)methyl]pyrimidin-4-yl}-5′,6-dimethyl-[1,4′-bipyridin]-2-one] | > 1 | > 316 |  |  |
| Cc1cnnc(COc2cc(C)n(-c3cc(-c4ccnc(C(C)(C)O)n4)ncc3C)c(=O)c2Cl)c1 [Example 28A, rel-3-chloro-2′-[2-(2-hydroxypropan-2-yl)pyrimidin-4-yl]-5′,6-dimethyl-4-[(5-methylpyridazin-3-yl)methoxy]-[1,4′-bipyridin]-2-one] |  | > 316 | 3.98 |  |
| Cc1cnc(-c2ccc3c(n2)C(C)(O)CC3)cc1-n1c(C)cc(OCc2ncc(F)cc2F)c(Cl)c1=O (single isomer, unassigned) [Example 32A] | 0.02 | 6.31 |  |  |
| Cc1cnc(-n2ccc(C(=O)NC3CC3)n2)cc1-n1c(C)cc(OCc2ncc(F)cc2F)c(Cl)c1=O (single isomer, unassigned) [Example 44B, rel-1-{3-chloro-4-[(3,5-difluoropyridin-2-yl)methoxy]-5′,6-dimethyl-2-oxo-[1,4′-bipyridin]-2′-yl}-N-cyclopropylpyrazole-3-carboxamide] | > 1 | > 316 |  |  |
| Cc1cnc(-c2nc(C(C)(C)O)ncc2C2CC2)cc1-n1c(C)cc(OCc2ncc(F)cc2F)c(Cl)c1=O (single isomer, unassigned) [Example 31A, rel-3-chloro-2′-(5-cyclopropyl-2-(2-hydroxypropan-2-yl)pyrimidin-4-yl)-4-((3,5-difluoropyridin-2-yl)methoxy)-5′,6-dimethyl-2H-[1,4′-bipyridin]-2-one] |  | 3.16 | 2 |  |
| Cc1cnc(-c2cc(C3CC3)nc(C(C)(C)O)n2)cc1-n1c(C)cc(OCc2ncc(F)cc2F)c(Cl)c1=O (atropisomer, axis not shown) [Example 10, 3-chloro-2′-[6-cyclopropyl-2-(2-hydroxypropan-2-yl)pyrimidin-4-yl]-4-[(3,5-difluoropyridin-2-yl)methoxy]-5′,6-dimethyl-[1,4′-bipyridin]-2-one] |  | 5.01 |  | 5.8 |
| Cc1cnc(-c2ccnc(C(C)(C)CO)n2)cc1-n1c(C)cc(OCc2ncc(F)cc2F)c(Cl)c1=O (single isomer, unassigned) [Example 4A, rel-3-chloro-4-[(3,5-difluoropyridin-2-yl)methoxy]-2′-[2-(1-hydroxy-2-methylpropan-2-yl)pyrimidin-4-yl]-5′,6-dimethyl-[1,4′-bipyridin]-2-one] | 0.00158 | 3.98 |  |  |
| [2H]C([2H])(Oc1cc(C)n(-c2c(C)cnc(-c3ccnc(C(C)(C)O)n3)c2F)c(=O)c1Cl)c1ncc(F)cc1F (single isomer, unassigned) [Example 57B, rel-3-chloro-4-[(3,5-difluoropyridin-2-yl)(2H2)methoxy]-3′-fluoro-2′-[2-(2-hydroxypropan-2-yl)pyrimidin-4-yl]-5′,6-dimethyl-[1,4′-bipyridin]-2-one] | > 0.01 | 126 |  |  |
| CCc1cnc(-c2ccnc(C(C)(C)O)n2)cc1-n1c(C)cc(OCc2ncc(F)cc2F)c(Cl)c1=O (single isomer, unassigned) [Example 29A, rel-3-chloro-4-((3,5-difluoropyridin-2-yl)methoxy)-5′-ethyl-2′-(2-(2-hydroxypropan-2-yl)pyrimidin-4-yl)-6-methyl-2H-[1,4′-bipyridin]-2-one] | 0.00794 | 12.6 |  |  |
| Cc1cnc(-c2ccnc(C3(O)CCOCC3)n2)cc1-n1c(C)cc(OCc2ncc(F)cc2F)c(Cl)c1=O (single isomer, unassigned) [Example 39B, rel-3-chloro-4-((3,5-difluoropyridin-2-yl)methoxy)-2′-(2-(4-hydroxytetrahydro-2H-pyran-4-yl)pyrimidin-4-yl)-5′,6-dimethyl-2H-[1,4′-bipyridin]-2-one] | > 1 | > 316 |  |  |
| Cc1cnc(-c2nc(C(C)(C)O)cs2)cc1-n1c(C)cc(OCc2ncc(F)cc2F)c(Cl)c1=O (atropisomer, axis not shown) [Example 2, 3-chloro-4-[(3,5-difluoropyridin-2-yl)methoxy]-2′-[4-(2-hydroxypropan-2-yl)-1,3-thiazol-2-yl]-5′,6-dimethyl-[1,4′-bipyridin]-2-one] |  | 3.98 |  | 7.5 |
| Cc1cnc(-n2ccc(C(=O)NC3CC3)n2)cc1-n1c(C)cc(OCc2ncc(F)cc2F)c(Cl)c1=O [Example 44A, rel-1-{3-chloro-4-[(3,5-difluoropyridin-2-yl)methoxy]-5′,6-dimethyl-2-oxo-[1,4′-bipyridin]-2′-yl}-N-cyclopropylpyrazole-3-carboxamide] | 0.0251 | 6.31 |  |  |
| [2H]C([2H])(Oc1cc(C)n(-c2c(C)cnc(-c3ccnc(C(C)(C)O)c3F)c2F)c(=O)c1Cl)c1ncc(F)cc1F (single isomer, unassigned) [Example 65B, rel-3-chloro-1-[3,3′-difluoro-2′-(2-hydroxypropan-2-yl)-5-methyl-[2,4′-bipyridin]-4-yl]-4-[(3,5-difluoropyridin-2-yl)(2H2)methoxy]-6-methylpyridin-2-one] | > 0.1 | 79.4 |  |  |
| Cc1cnc(-c2ccnc(C(C)(C)CO)n2)cc1-n1c(C)cc(OCc2ncc(F)cc2F)c(Cl)c1=O (atropisomer, axis not shown) [Example 4, 3-chloro-4-[(3,5-difluoropyridin-2-yl)methoxy]-2′-[2-(1-hydroxy-2-methylpropan-2-yl)pyrimidin-4-yl]-5′,6-dimethyl-[1,4′-bipyridin]-2-one] |  | 7.94 |  | 7.8 |
| Cc1cnc(-n2ccc(C(C)(C)O)n2)c(F)c1-n1c(C)cc(OCc2ncc(F)cc2F)c(Cl)c1=O (single isomer, unassigned) [Example 54B, rel-3-chloro-4-((3,5-difluoropyridin-2-yl)methoxy)-3′-fluoro-2′-(3-(2-hydroxypropan-2-yl)-1H-pyrazol-1-yl)-5′,6-dimethyl-2H-[1,4′-bipyridin]-2-one] | 0.000631 | 1.58 |  |  |
| Cc1cnc(-c2ccc3c(n2)[C@H](O)CC3)cc1-n1c(C)cc(OCc2ncc(F)cc2F)c(Cl)c1=O (single isomer, unassigned) [Example 18D] |  | 3.16 | 0.0794 |  |
| Cc1ncc(-c2ccnc(C(C)(C)O)n2)cc1-n1c(C)cc(OCc2ncc(F)cc2F)c(Cl)c1=O (single isomer, unassigned) [Example 45A, rel-3-chloro-4-[(3,5-difluoropyridin-2-yl)methoxy]-5′-[2-(2-hydroxypropan-2-yl)pyrimidin-4-yl]-2′,6-dimethyl-[1,3′-bipyridin]-2-one] | > 1 | > 316 |  |  |
| Cc1cnc(-c2cccc([C@@](C)(O)CO)n2)cc1-n1c(C)cc(OCc2ncc(F)cc2F)c(Cl)c1=O (single isomer, unassigned) [Example 36B, rel-3-chloro-4-[(3,5-difluoropyridin-2-yl)methoxy]-2′-[6-(1,2-dihydroxypropan-2-yl)pyridin-2-yl]-5′,6-dimethyl-[1,4′-bipyridin]-2-one] | 0.00631 | 15.8 |  |  |
| Cc1cnc(-c2ccnc(C(C)(C)O)n2)cc1-n1c(C)cc(OCc2cc(C(F)F)ccn2)c(Cl)c1=O (single isomer, unassigned) [Example 27A, rel-3-chloro-4-{[4-(difluoromethyl)pyridin-2-yl]methoxy}-2′-[2-(2-hydroxypropan-2-yl)pyrimidin-4-yl]-5′,6-dimethyl-[1,4′-bipyridin]-2-one] |  | 126 | 0.0631 |  |
| Cc1cnc(-c2ccnc(C(C)(C)CO)n2)cc1-n1c(C)cc(OCc2ncc(F)cc2F)c(Cl)c1=O (single isomer, unassigned) [Example 4B, rel-3-chloro-4-[(3,5-difluoropyridin-2-yl)methoxy]-2′-[2-(1-hydroxy-2-methylpropan-2-yl)pyrimidin-4-yl]-5′,6-dimethyl-[1,4′-bipyridin]-2-one] |  | > 316 | 0.794 |  |
